In the supplement of paper PMC12463676, “Small-molecule dissolution of stress granules by redox modulation benefits ALS models” (Nature Chemical Biology, 2025):

Columns and labels:
lipoamide = compound: NC(=O)CCCCC1CCSS1 [lipoamide]; assay: thermal stability z-score vs DMSO; higher = more thermally stabilized by treatment; details: HeLa, lipoamide concentration 100 µM
Protocol: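 Cellular thermal proteome profiling in HeLa cells. Cells were treated with 100 µM lipoamide for 1 h, with or without 1 mM arsenate for a further 1 h, then heated to ten temperatures (37-66.3 °C), and soluble protein was quantified by TMT mass spectrometry relative to 0.1% DMSO controls. The thermal stability score (sum of log2 fold changes minus the abundance score) was transformed to a z-score; mean of n = 3 experiments.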

potassium arsenate = compound: O=[As]([O-])(O)O.[K+] [potassium arsenate]; assay: as above; details: HeLa; arsenate concentration 1 mM
Protocol: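 Cellular thermal proteome profiling in HeLa cells treated with 1 mM arsenate for 1 h (DMSO pretreatment), heated to ten temperatures (37-66.3 °C). Soluble protein was quantified by TMT mass spectrometry relative to DMSO controls; the thermal stability score was transformed to a z-score; mean of n = 3 experiments.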

[1] = arsenate co-treatment: 1 mM arsenate 1 h
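Also: each temperature applied for 3 min, abundance score taken as mean log2 fold change at the two lowest temperatures, z-score obtained by mean subtraction and division by SD.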

UniProt P28288, sequence (P28288 whole entry): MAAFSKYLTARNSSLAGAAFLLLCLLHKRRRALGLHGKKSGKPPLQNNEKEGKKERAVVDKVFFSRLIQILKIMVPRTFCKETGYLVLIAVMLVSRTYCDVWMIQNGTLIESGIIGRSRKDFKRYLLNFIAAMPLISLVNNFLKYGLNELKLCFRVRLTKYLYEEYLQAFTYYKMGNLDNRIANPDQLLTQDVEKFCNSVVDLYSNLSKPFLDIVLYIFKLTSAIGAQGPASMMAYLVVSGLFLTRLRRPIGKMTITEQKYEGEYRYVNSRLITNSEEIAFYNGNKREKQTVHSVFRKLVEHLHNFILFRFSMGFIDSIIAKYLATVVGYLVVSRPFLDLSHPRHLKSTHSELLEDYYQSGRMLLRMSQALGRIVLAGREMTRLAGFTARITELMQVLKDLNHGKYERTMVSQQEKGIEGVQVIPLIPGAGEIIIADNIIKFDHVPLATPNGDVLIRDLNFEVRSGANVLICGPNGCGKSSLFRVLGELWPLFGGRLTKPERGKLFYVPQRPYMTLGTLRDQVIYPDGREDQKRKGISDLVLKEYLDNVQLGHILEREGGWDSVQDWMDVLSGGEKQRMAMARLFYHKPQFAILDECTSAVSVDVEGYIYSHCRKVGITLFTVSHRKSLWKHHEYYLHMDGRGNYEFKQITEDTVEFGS
UniProt P23511, sequence (P23511 whole entry): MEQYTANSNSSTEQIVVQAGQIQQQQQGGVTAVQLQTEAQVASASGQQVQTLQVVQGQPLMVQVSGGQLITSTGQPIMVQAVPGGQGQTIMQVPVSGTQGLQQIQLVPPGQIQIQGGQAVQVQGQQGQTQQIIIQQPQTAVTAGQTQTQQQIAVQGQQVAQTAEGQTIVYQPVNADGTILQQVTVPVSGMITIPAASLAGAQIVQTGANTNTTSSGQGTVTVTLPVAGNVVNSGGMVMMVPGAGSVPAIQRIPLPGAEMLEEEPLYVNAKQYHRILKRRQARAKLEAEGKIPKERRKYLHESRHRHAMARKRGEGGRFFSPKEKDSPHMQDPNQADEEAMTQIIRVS
UniProt Q14186, sequence (Q14186 whole entry): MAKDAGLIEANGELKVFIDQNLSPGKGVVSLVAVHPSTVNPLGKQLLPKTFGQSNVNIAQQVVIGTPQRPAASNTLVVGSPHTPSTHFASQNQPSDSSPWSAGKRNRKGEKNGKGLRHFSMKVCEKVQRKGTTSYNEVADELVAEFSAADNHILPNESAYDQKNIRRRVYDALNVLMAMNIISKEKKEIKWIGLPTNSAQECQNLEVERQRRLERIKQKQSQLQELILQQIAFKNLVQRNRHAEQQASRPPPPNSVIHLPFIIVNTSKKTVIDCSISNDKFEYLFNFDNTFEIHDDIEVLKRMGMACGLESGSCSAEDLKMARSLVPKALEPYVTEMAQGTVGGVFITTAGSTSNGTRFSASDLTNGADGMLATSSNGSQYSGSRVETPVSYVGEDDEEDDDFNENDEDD
UniProt O14841, sequence (O14841 whole entry): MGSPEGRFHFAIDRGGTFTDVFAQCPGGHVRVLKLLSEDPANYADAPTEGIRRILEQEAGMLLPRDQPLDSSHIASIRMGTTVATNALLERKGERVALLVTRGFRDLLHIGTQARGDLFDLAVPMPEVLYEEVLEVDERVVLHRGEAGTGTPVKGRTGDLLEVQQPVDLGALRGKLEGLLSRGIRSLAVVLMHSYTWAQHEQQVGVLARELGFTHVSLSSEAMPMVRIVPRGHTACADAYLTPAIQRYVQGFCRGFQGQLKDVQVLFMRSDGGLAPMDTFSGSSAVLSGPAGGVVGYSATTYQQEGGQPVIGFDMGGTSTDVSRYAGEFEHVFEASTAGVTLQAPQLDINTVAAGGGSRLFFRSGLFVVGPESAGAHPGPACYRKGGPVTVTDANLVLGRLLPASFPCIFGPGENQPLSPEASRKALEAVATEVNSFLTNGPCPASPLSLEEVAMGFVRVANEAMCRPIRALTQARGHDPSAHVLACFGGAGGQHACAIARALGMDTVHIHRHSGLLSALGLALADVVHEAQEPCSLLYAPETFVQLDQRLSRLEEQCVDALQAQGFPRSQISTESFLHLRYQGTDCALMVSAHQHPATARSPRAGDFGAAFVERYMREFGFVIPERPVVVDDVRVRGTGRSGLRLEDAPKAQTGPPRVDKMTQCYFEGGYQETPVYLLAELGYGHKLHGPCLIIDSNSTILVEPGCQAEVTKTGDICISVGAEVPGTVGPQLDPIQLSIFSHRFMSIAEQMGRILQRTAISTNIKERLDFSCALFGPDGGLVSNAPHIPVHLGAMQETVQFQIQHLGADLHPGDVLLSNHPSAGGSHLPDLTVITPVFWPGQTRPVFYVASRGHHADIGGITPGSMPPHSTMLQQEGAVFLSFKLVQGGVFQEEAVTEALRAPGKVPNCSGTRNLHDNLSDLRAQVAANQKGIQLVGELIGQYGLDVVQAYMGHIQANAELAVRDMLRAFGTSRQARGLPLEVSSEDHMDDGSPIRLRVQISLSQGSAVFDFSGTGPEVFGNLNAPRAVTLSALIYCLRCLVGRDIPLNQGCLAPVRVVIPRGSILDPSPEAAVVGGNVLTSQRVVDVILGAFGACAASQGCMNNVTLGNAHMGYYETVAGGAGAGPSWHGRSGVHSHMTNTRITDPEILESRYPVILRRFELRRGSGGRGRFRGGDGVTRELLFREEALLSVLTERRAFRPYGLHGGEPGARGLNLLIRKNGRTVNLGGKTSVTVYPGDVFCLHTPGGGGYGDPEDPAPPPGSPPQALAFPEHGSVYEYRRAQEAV
UniProt O15155, sequence (O15155 whole entry): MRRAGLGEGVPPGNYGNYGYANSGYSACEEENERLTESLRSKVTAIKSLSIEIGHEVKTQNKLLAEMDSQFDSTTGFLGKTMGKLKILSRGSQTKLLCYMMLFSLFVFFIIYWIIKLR
UniProt P28827, sequence (P28827 whole entry): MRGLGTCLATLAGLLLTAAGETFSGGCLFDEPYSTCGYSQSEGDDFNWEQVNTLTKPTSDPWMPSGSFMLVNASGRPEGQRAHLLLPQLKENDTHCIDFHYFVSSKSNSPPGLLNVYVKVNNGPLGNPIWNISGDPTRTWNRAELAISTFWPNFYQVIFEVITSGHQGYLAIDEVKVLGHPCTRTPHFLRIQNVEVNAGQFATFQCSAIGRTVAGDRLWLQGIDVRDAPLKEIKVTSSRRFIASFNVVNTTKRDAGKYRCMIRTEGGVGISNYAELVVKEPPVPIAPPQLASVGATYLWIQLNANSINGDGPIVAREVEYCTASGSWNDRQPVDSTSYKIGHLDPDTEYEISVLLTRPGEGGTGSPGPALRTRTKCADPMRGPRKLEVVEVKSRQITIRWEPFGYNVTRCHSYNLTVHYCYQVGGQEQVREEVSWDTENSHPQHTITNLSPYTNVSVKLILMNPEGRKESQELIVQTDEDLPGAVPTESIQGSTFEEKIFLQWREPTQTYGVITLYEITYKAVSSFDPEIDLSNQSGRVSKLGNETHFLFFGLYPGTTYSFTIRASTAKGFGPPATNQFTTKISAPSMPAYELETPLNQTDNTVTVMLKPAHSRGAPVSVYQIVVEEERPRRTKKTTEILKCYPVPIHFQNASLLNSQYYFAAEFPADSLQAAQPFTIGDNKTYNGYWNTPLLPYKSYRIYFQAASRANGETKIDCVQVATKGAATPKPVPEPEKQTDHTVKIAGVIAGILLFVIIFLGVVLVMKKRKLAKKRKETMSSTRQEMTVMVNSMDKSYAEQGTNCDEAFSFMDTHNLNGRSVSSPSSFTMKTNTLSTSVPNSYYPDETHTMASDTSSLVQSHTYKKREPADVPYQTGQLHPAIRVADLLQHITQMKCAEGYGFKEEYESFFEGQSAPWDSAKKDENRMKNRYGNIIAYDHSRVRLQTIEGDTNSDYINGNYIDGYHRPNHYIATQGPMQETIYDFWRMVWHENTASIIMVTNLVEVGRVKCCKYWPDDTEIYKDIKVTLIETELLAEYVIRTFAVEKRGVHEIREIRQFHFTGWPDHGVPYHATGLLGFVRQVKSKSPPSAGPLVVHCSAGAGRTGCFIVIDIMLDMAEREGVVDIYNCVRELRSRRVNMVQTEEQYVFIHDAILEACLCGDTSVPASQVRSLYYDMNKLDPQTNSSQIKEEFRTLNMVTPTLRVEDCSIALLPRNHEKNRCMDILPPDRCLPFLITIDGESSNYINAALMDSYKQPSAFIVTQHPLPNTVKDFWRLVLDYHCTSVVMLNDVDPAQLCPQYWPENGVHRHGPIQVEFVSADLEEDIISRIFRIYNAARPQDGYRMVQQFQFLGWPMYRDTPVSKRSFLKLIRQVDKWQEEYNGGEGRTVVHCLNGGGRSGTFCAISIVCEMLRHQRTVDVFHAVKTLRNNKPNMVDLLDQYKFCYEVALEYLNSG
UniProt P15923, sequence (P15923 whole entry): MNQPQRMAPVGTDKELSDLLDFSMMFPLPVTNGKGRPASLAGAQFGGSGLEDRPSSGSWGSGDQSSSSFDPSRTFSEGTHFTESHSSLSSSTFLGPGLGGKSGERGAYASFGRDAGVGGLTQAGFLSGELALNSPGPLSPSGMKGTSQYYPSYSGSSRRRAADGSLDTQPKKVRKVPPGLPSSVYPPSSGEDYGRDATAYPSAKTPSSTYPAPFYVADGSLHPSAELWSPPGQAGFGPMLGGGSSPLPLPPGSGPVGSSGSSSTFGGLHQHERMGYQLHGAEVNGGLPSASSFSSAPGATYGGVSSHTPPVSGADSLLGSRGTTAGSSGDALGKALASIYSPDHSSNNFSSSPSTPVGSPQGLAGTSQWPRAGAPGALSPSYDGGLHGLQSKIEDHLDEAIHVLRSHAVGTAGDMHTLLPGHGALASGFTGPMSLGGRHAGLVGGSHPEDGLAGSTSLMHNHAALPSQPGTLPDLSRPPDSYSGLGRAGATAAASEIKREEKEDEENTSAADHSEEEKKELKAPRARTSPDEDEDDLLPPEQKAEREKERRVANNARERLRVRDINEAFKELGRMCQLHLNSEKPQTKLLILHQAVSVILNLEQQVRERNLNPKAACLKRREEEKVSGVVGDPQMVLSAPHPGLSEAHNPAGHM
UniProt O75368, sequence (O75368 whole entry): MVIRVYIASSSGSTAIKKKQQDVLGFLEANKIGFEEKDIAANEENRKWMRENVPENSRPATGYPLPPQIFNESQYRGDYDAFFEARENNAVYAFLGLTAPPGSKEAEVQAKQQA

Row | Target | thermal stability z-score (lipoamide; [1]) | thermal stability z-score (lipoamide; arsenate co-treatment: none) | thermal stability z-score (potassium arsenate)
1 | BST2 (UniProt Q10589) | 0.265 | 0.606 | 0.172
2 | ZNF830 (UniProt Q96NB3) | 1.38 | 0.482 | -0.642
3 | FAM129A (UniProt Q9BZQ8) | -0.167 | -0.0302 | 0.444
4 | TRIOBP (UniProt Q9H2D6) | -0.339 | -0.147 | 0.379
5 | RAB5B (UniProt P61020) | 0.278 | -0.614 | -0.758
6 | CTNNA1 (UniProt P35221) | 0.319 | 0.2 | -0.4
7 | PRCC (UniProt Q92733) | 0.409 | -0.0293 | 0.465
8 | SH3BGRL (UniProt O75368) | 0.42 | 0.213 | 0.235
9 | PTRH2 (UniProt Q9Y3E5) | -0.239 | -0.143 | -0.0653
10 | YTHDC2 (UniProt Q9H6S0) | -0.0971 | -0.734 | -0.0852
11 | PPP2R4 (UniProt Q15257) | 0.108 | 0.233 | -0.0643
12 | RPRD1A (UniProt Q96P16) | -0.123 | -0.0762 | -0.037
13 | NOTCH2 (UniProt Q04721) | -1.45 | -1.57 | -0.309
14 | GTF3C4 (UniProt Q9UKN8) | 0.237 | 0.0733 | -1.21
15 | KARS (UniProt Q15046) | -0.646 | -0.663 | 1.5
16 | SEC22B (UniProt O75396) | -0.614 | -0.0571 | -0.0449
17 | DCAF6 (UniProt Q58WW2) | -0.747 | -0.879 | -0.72
18 | ABCB10 (UniProt Q9NRK6) | 0.329 | 0.173 | -0.034
19 | AMACR (UniProt Q9UHK6) | 0.683 | -0.138 | 0.504
20 | BUD31 (UniProt P41223) | 0.0866 | 0.568 | -3.38
21 | PPM1A (UniProt P35813) | 0.622 | 0.096 | -0.154
22 | FA2H (UniProt Q7L5A8) | -0.355 | 0.132 | -0.327
23 | CAP1 (UniProt Q01518) | 0.524 | 0.502 | -0.0608
24 | LIN9 (UniProt Q5TKA1) | -0.0678 | -0.263 | -0.121

Row | Target | thermal stability z-score (lipoamide; [1]) | thermal stability z-score (lipoamide; arsenate co-treatment: none) | thermal stability z-score (potassium arsenate)
25 | RPLP2 (UniProt P05387) | 1.56 | 1.34 | 0.225
26 | MYBBP1A (UniProt Q9BQG0) | 1.21 | 0.675 | -1.35
27 | MRPL50 (UniProt Q8N5N7) | 1.2 | 0.662 | 1.42
28 | NOL7 (UniProt Q9UMY1) | 0.225 | -0.325 | -0.698
29 | NACC1 (UniProt Q96RE7) | -0.376 | -0.495 | -0.423
30 | SLC43A3 (UniProt Q8NBI5) | 0.34 | 0.53 | 0.807
31 | TFDP1 (UniProt Q14186) | -0.00506 | 0.0652 | -0.0388
32 | MAST2 (UniProt Q6P0Q8) | -0.0733 | -0.0383 | 0.00193
33 | CHD1L (UniProt Q86WJ1) | -0.114 | -0.0149 | -0.109
34 | BET1 (UniProt O15155) | 0.642 | 1.03 | 1.11
35 | HMGN5 (UniProt P82970) | -0.141 | -0.134 | -0.172
36 | CCDC88A (UniProt Q3V6T2) | 1.49 | 0.586 | 1.3
37 | DYNC2LI1 (UniProt Q8TCX1) | 0.0696 | -0.0585 | 0.202
38 | ERAP1 (UniProt Q9NZ08) | -2.65 | -2.68 | 0.97
39 | AIFM2 (UniProt Q9BRQ8) | 0.556 | -0.298 | 0.776
40 | TCF3 (UniProt P15923) | -0.098 | -0.0941 | -0.203
41 | PYM1 (UniProt Q9BRP8) | 0.618 | -0.287 | -0.578
42 | OPLAH (UniProt O14841) | -0.0343 | 0.0614 | -0.0405
43 | DLG1 (UniProt Q12959) | 0.111 | -0.207 | -0.34
44 | BRD2 (UniProt P25440) | -0.0745 | 0.075 | -0.153
45 | KIFC1 (UniProt Q9BW19) | 0.126 | 0.0537 | -0.106
46 | ABCD3 (UniProt P28288) | -0.0141 | -0.0329 | -0.13
47 | SRP68 (UniProt Q9UHB9) | -0.606 | -0.27 | 0.344
48 | UBE2G2 (UniProt P60604) | 0.327 | 0.813 | 0.643

Row | Target | thermal stability z-score (lipoamide; [1]) | thermal stability z-score (lipoamide; arsenate co-treatment: none) | thermal stability z-score (potassium arsenate)
49 | USP19 (UniProt O94966) | 0.774 | -0.193 | -0.0515
50 | UBE2A (UniProt P49459) | 0.343 | 0.172 | -0.0388
51 | CSNK2B (UniProt P67870) | 1.66 | 1.48 | 0.656
52 | VPS16 (UniProt Q9H269) | -0.305 | 0.0437 | 1.02
53 | PTPRM (UniProt P28827) | 0.782 | 1.16 | 0.672
54 | TBC1D15 (UniProt Q8TC07) | -0.559 | -0.646 | -0.276
55 | STX2 (UniProt P32856) | 0.221 | -0.18 | -0.135
56 | MRPL44 (UniProt Q9H9J2) | -0.467 | -0.447 | -0.354
57 | HTATIP2 (UniProt Q9BUP3) | -0.914 | -0.584 | 0.453
58 | SLCO4A1 (UniProt Q96BD0) | 0.0123 | -0.101 | 0.0663
59 | DUT (UniProt P33316) | -0.171 | 0.377 | -0.727
60 | GCAT (UniProt O75600) | -0.752 | -1.04 | 1.38
61 | RAB32 (UniProt Q13637) | -0.0545 | -0.0863 | 0.411
62 | PDCL (UniProt Q13371) | 1.05 | 0.207 | -0.321
63 | LYN (UniProt P07948) | 0.264 | 0.362 | -0.89
64 | NFYA (UniProt P23511) | 0.401 | -0.0763 | -0.528
65 | MLST8 (UniProt Q9BVC4) | -0.537 | 0.0244 | 0.14
66 | GPN1 (UniProt Q9HCN4) | -0.0201 | -0.00238 | 0.212
67 | DAPK3 (UniProt O43293) | -0.0576 | -0.0876 | 0.228
68 | ARHGDIB (UniProt P52566) | 0.0327 | -0.0579 | 0.0843
69 | RNF25 (UniProt Q96BH1) | -0.412 | -0.217 | -1.12
70 | CIAPIN1 (UniProt Q6FI81) | 0.671 | 0.397 | 0.186
71 | RSRC2 (UniProt Q7L4I2) | 0.668 | 0.164 | 1.03
